# Measurements: patent publication US20160130278A1 (TAISHO PHARMACEUTICAL CO., LTD, priority 2013, published 2016)
# Molecular target: T1, human type 1 glycine transporter (GlyT1) (Homo sapiens, UniProt P48067)
# T1 construct: T98G cells (glioma cells) expressing human type 1 glycine transporter (GlyT1) were used
# T1 sequence (P48067 1-706): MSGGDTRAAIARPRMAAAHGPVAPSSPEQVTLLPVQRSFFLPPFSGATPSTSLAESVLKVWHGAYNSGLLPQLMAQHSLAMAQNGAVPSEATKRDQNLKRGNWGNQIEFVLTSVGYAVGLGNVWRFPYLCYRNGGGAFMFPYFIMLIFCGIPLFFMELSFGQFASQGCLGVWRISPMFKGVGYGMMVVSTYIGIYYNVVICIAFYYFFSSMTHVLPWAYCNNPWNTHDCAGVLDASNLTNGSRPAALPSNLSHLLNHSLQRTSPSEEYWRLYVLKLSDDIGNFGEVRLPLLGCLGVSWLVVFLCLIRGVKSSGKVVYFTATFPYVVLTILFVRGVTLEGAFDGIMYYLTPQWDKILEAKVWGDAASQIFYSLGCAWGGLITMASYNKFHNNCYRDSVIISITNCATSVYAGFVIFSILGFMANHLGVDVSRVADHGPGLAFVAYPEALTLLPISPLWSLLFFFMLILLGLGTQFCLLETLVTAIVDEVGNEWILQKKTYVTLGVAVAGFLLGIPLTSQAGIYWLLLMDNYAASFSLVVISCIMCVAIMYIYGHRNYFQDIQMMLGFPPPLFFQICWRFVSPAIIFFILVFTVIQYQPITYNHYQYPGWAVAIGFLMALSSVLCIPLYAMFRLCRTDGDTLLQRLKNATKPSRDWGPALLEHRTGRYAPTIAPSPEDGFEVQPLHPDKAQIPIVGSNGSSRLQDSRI
# Assay: Glycine uptake inhibition experiment ([3H]glycine uptake)
# Assay type: cell-based
# How it was run: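 T98G glioma cells expressing human GlyT1 were pretreated 10 min with compound in HEPES buffer pH 7.4 (0.2% BSA), then incubated with compound plus 250 nM final [3H]glycine for 15 min at room temperature. Intracellular radioactivity was counted after NaOH lysis; 10 μM ALX5407 defined non-specific uptake. IC50 came from 10^−9–10^−5 M curves.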
Structure (SMILES),IC50 (GlyT1),IC50 (human GlyT1)
"O=C(NC(c1ccc(F)c(F)c1F)C1(O)CCC(F)(F)CC1)c1ccnc(C(F)(F)F)c1Cl (stereo not drawn) [Compound 171, 3-chloro-N-[(4,4-difluoro-1-hydroxycyclohexyl)(2,3,4-trifluorophenyl)methyl]-2-(trifluoromethyl)pyridine-4-carboxamide]",1100 nM,–
"O=C(NC(c1cccc(F)c1)C1(O)CCC1)c1nccc(C(F)(F)F)c1Cl (single isomer, unassigned) [Compound 66, 3-chloro-N-[(3-fluorophenyl)(1-hydroxycyclobutyl)methyl]-4-(trifluoromethyl)pyridine-2-carboxamide]",690 nM,–
"O=C(NC(c1cccc(Cl)c1Cl)C1(O)CCCC1)c1nccc(C(F)(F)F)c1Cl (single isomer, unassigned) [Compound 117, 3-chloro-N-[(2,3-dichlorophenyl)(1-hydroxycyclopentyl)methyl]-4-(trifluoromethyl)pyridine-2-carboxamide]",29 nM,–
"CCn1cc(-c2cccc(C(NC(=O)c3c(Cl)ccc(Cl)c3OC)C3(O)CCC(F)(F)CC3)c2)cn1 (stereo not drawn) [Compound 182, 3,6-dichloro-N-[(4,4-difluoro-1-hydroxycyclohexyl)[3-(1-ethyl-1H-pyrazol-4-yl)phenyl]methyl}-2-methoxybenzamide]",580 nM,–
"CCn1cc(-c2cccc(C(NC(=O)c3cc(Cl)ccc3Cl)C3(O)CCC(F)(F)CC3)c2)cn1 (stereo not drawn) [Compound 127, 2,5-dichloro-N-{(4,4-difluoro-1-hydroxycyclohexyl)[3-(1-ethyl-1H-pyrazol-4-yl)phenyl]methyl}benzamide]",660 nM,–
"O=C(NC(c1cccc(Cl)c1)[C@]1(O)CC[C@@H](F)CC1)c1ccnc(C(F)(F)F)c1Cl (stereo partly drawn) [Compound 163, 3-chloro-N-[(3-chlorophenyl)(cis-4-fluoro-1-hydoxycyclohexyl)methyl]-2-(trifluoromethyl)pyridine-4-carboxamide]",390 nM,–
"O=C(NC(c1cccc(F)c1)C1(O)CCC1)c1nccc(C(F)(F)F)c1Cl (stereo not drawn) [Compound 62, 3-chloro-N-[(3-fluorophenyl)(1-hydroxycyclobutyl)methyl]-4-(trifluoromethyl)pyridine-2-carboxamide]",2100 nM,–
"O=C(N[C@@H](c1cccc(Cl)c1)[C@]1(O)CC[C@@H](F)CC1)c1nccc(C(F)(F)F)c1Cl [Compound 162, 3-chloro-N-[(S)-(3-chlorophenyl)(cis-4-fluoro-1-hydroxycyclohexyl)methyl]-4-(trifluoromethyl)pyridine-2-carboxamide]",65 nM,–
"O=C(N[C@H](c1cccc(Br)c1)[C@]1(O)CC[C@@H](F)CC1)c1nccc(C(F)(F)F)c1Cl [Compound 109, N-[(R)-(3-bromophenyl)(cis-4-fluoro-1-hydroxycyclohexyl)methyl]-3-chloro-4-(trifluoromethyl)pyridine-2-carboxamide]",6100 nM,–
"O=C(NC(c1cccc(-c2ccccn2)c1)C1(O)CCC(F)(F)CC1)c1nccc(C(F)(F)F)c1Cl (single isomer, unassigned) [Compound 188, 3-chloro-N-{(4,4-difluoro-1-hydroxycyclohexyl)[3-(pyridin-2-yl)phenyl]methyl]-4-(trifluoromethyl)pyridine-2-carboxamide]",73 nM,–
"O=C(NC(c1ccccc1Cl)C1(O)CCC(F)(F)CC1)c1ccnc(C(F)(F)F)c1Cl (single isomer, unassigned) [Compound 155, 3-chloro-N-[(2-chlorophenyl)(4,4-difluoro-1-hydroxycyclohexyl)methyl]-2-(trifluoromethyl)pyridine-4-carboxamide]",170 nM,–
"CCn1cc(-c2cccc(C(NC(=O)c3cccc(C(F)(F)F)c3C)C3(O)CCC(F)(F)CC3)c2)cn1 (stereo not drawn) [Compound 125, N-{(4,4-difluoro-1-hydroxycyclohexyl)[3-(1-ethyl-1H-pyrazol-4-yl)phenyl]methyl}-2-methyl-3-(trifluoromethyl)benzamide]",350 nM,–

# Other lines, results leading:
IC50 (GlyT1),IC50 (human GlyT1),Structure (SMILES)
1100 nM,–,"CCn1cc(-c2cccc(C(NC(=O)c3cccc4ccccc34)C3(O)CCC(F)(F)CC3)c2)cn1 (single isomer, unassigned) [Compound 195, N-{(4,4-difluoro-1-hydroxycyclohexyl)[3-(1-ethyl-1H-pyrazol-4-yl)phenyl]methyl}naphthalene-1-carboxamide]"
1700 nM,–,"Cc1cc(C(=O)NC(c2cccc(F)c2Cl)[C@]2(O)CC[C@@H](F)CC2)c2cnn(C(C)C)c2n1 (single isomer, unassigned) [Compound 269, N-[(2-chloro-3-fluorophenyl)(cis-4-fluoro-1-hydroxycyclohexyl)methyl]-6-methyl-1-(propan-2-yl)-1H-pyrazolo[3,4-b]pyridine-4-carboxamide]"
440 nM,–,"O=C(NC(c1ccnc(Cl)c1)[C@]1(O)CC[C@@H](F)CC1)c1nccc(C(F)(F)F)c1Cl (single isomer, unassigned) [Compound 257]"
910 nM,–,"O=C(NC(c1cccc(F)c1Cl)[C@]1(O)CC[C@@H](F)CC1)c1ccc(Cl)cc1Cl (single isomer, unassigned) [Compound 264, 2,4-dichloro-N-[(2-chloro-3-fluorophenyl)(cis-4-fluoro-1-hydroxycyclohexyl)methyl]benzamide]"
1900 nM,–,"O=C(NC(c1cccc(F)c1Cl)[C@]1(O)CC[C@@H](F)CC1)c1cc(-n2ccnn2)ccc1Cl (single isomer, unassigned) [Compound 337, 2-chloro-N-[(2-chloro-3-fluorophenyl)(cis-4-fluoro-1-hydroxycyclohexyl)methyl]-5-(1H-1,2,3-triazol-1-yl)benzamide]"
2800 nM,–,"O=C(NC(c1cccc(Cl)c1)C1(O)CCCCC1)c1nccc(C(F)(F)F)c1Cl (single isomer, unassigned) [Compound 230, 3-chloro-N-[(3-chlorophenyl)(1-hydroxycyclohexyl)methyl]-4-(trifluoromethyl)pyridine-2-carboxamide]"
81 nM,–,"O=C(NC(c1cccc(Cl)n1)[C@]1(O)CC[C@@H](F)CC1)c1cccc(C(F)(F)F)c1Cl (single isomer, unassigned) [Compound 327]"
450 nM,–,"O=C(NC(c1cccc(F)c1Cl)[C@]1(O)CC[C@@H](F)CC1)c1nccc(C(F)(F)F)c1Cl (single isomer, unassigned) [Compound 214, 3-chloro-N-[(2-chloro-3-fluorophenyl)(cis-4-fluoro-1-hydroxycyclohexyl)methyl]-4-(trifluoromethyl)pyridine-2-carboxamide]"
1200 nM,–,"O=C(NC(c1cccnc1Cl)[C@]1(O)CC[C@@H](F)CC1)c1nccc(C(F)F)c1Cl (single isomer, unassigned) [Compound 324, 3-chloro-N-[(2-chloropyridin-3-yl)(cis-4-fluoro-1-hydroxycyclohexyl)methyl]-4-(difluoromethyl)pyridine-2-carboxamide]"
580 nM,–,"CCn1cc(-c2cccc(C(NC(=O)c3cc(Cl)ccc3C(F)(F)F)C3(O)CCC(F)(F)CC3)c2)cn1 (single isomer, unassigned) [Compound 217, 5-chloro-N-{(4,4-difluoro-1-hydroxycyclohexyl)[3-(1-ethyl-1H-pyrazol-4-yl)phenyl]methyl}-2-(trifluoromethyl)benzamide]"
1900 nM,–,"O=C(NC(c1cccc(F)c1Cl)[C@]1(O)CC[C@@H](F)CC1)c1cnccc1Cl (single isomer, unassigned) [Compound 250, 4-chloro-N-[(2-chloro-3-fluorophenyl)(cis-4-fluoro-1-hydroxycyclohexyl)methyl]pyridine-3-carboxamide]"
740 nM,–,"CN(C(=O)c1nccc(C(F)(F)F)c1Cl)C(c1cccc(F)c1Cl)[C@]1(O)CC[C@@H](F)CC1 (single isomer, unassigned) [Compound 382, 3-chloro-N-[(2-chloro-3-fluorophenyl)(cis-4-fluoro-1-hydroxycyclohexyl)methyl]-N-methyl-4-(trifluoromethyl)pyridine-2-carboxamide]"
1300 nM,–,"CCn1cc(-c2cccc(C(NC(=O)c3cccc(Cl)c3C(F)(F)F)C3(O)CCC(F)(F)CC3)c2)cn1 (stereo not drawn) [Compound 208, 3-chloro-N-{(4,4-difluoro-1-hydroxycyclohexyl)[3-(1-ethyl-1H-pyrazol-4-yl)phenyl]methyl}-2-(trifluoromethyl)benzamide]"
920 nM,–,"O=C(NC(c1cccc(Cl)c1F)C1(O)CCC(F)(F)CC1)c1cc(C(F)(F)F)ncc1Cl (single isomer, unassigned) [Compound 219, 5-chloro-N-[(3-chloro-2-fluorophenyl)(4,4-difluoro-1-hydroxycyclohexyl)methyl]-2-(trifluoromethyl)pyridine-4-carboxamide]"
–,230 nM,"CS(=O)(=O)c1cc(C(F)(F)F)ccc1C(=O)NC(c1cccc(F)c1Cl)C1(O)CCC(F)(F)CC1 (single isomer, unassigned) [Compound 401, N-[(2-chloro-3-fluorophenyl)(4,4-difluoro-1-hydroxycyclohexyl)methyl]-2-(methylsulfonyl)-4-(trifluoromethyl)benzamide]"
